The values below come from US20240324593A1, “OCTENIDINE COMPOSITIONS AND METHODS OF USE THEREOF” (Solventum Intellectual Properties Company, priority 2021, published 2024).

Data set [1] can be described thus: Antimicrobial Efficiency Test, other antimicrobials with carnitine enhancers (Table 5). In kind it is cell-based. The settings on record: with versus without carnitine enhancer. On the procedure: Solutions of water, carnitine enhancer, and various other antimicrobials (i.e., chlorhexidine gluconate, benzalkonium chloride, polyhexamethylene biguanide) were prepared according to the procedure described immediately above.
Ex vivo porcine mucosa is transported to laboratory on ice pack and then trimmed and transferred in to RPMI 1640+2% PS media. A 5 mm biopsy punch is used to cut samples for assay. Remove most of the remaining muscle tissue with a fresh scalpel blade. Rinse 3× with 10±0.5 ml RPMI no ABX, no FCS. Transfer to incubator. Set up a 6 well plate with 1.5±0.2 mL RPMI (no ABX, no FCS) in each well and a 0.4 μm transwell insert. Transfer tissue explants mucosal side up to the insert (3 explants/well).
Passage overnight culture 1:10 into THB and return to shaking incubator for 2-3 hours. Remove 1 mL of passage culture from test tube and place in sterile microcentrifuge tube. Centrifuge (1±0.5 min at max speed) to pellet. Wash pellet with 1±0.1 mL RPMI, no ABX, no FCS. Centrifuge to pellet and re-suspend in 1±0.1 mL fresh RPMI. Check OD 600 to determine bacterial density and dilute as necessary to achieve ˜1E8 CFU/ml. Add bacteria: 2±1 μl per explant and return to incubator to infect 4±0.15 h.
Apply 50± μl of formulation per explant (mucosa side). Incubate at 37±2° C. for 24±0.5 h.
Remove tissue from transwells and place in appropriate neutralizer. Sonicate samples and vortex (30±5 second vortex, 2±0.1 minutes sonicate, and then 30±5 second vortex). Plate on Mannitol Salt Agar selective agar or Blood Agar at appropriate dilution and store dilutions at 4±2° C. The following day count plates and if TNTC, re-plate at higher dilution.

Data set [2] in a line: Homogeneity of the composition / precipitation of octenidine. In kind it is physicochemical. The conditions noted are these: aqueous composition of octenidine hydrochloride with enhancer. On the procedure:
Water and the carnitine enhancer (i.e., carnitine inner salt, carnitine tartrate tartaric acid, carnitine fumarate, or acetyl carnitine) to a 20 mL glass vial mixed with magnetic stirring. Octenidine hydrochloride (10% solution in 50:50 weight percentage methanol:water) was further added in the amount described in the tables below. The pH was adjusted using 1N HCL or NaOH. Glycerol (3 g) and Natrosol 250 HHX […] were added to a flask and mixed with a DAC 400 FVZ SPEEDMIXER dual asymmetric centrifuge mixer (from Flacktek, Inc Landrum, S.C.) at 2500 rpm for 30 seconds. The glycerol and Natrosol 250 HHX (1.3 g) were combined with the enhancer solution in a 40 gms Flack Tec cup and mixed for an additional 30 seconds at 2500 rpm. The resulting solutions were homogenous. Refer to Examples 1-36 below (total weight percentages of octenidine hydrochloride and carnitine enhancer within composition are provided in tables; glycerol about 8-9 wt %; Natrosol 250 HHX about 2-3 wt %; and water makes up the difference). The solutions of Examples 1-27 below were subjected to antimicrobial testing according to the method below.
As described above, aqueous compositions including only octenidine hydrochloride and a respective enhancer were also prepared (i.e., absent glycerol and Natrosol 250 HHX), similar to the formulations described in Tables 1-5. All compositions formed homogenous solutions. […]

The conditions of data set [3]: background statement; cited from earlier work.
For data set [4] the following is noted: background statement; cited from earlier work. The source holds these as a separate data set.
For data set [5] the following is noted: background statement; cited from earlier work. This is another data set of the same source.
For data set [6] the following is noted: background statement; cited from earlier work. This is another data set of the same source.

Counter-ions that a name gives are not always drawn.

For `N=C(NCCCCCCNC(=N)NC(=N)Nc1ccc(Cl)cc1)NC(=N)Nc1ccc(Cl)cc1.O=C(O)[C@H](O)[C@@H](O)[C@H](O)[C@H](O)CO.O=C(O)[C@H](O)[C@@H](O)[C@H](O)[C@H](O)CO` [chlorhexidine gluconate], the “antimicrobial activity in the presence of carnitine enhancers (in words)” value in data set [1] is on record as “performed better in the absence of carnitine enhancer”.
Turning to `C[N+](C)(C)C[C@H](O)CC(=O)[O-].O=C(O)/C=C/C(=O)O` [carnitine fumarate, L-Carnitine fumarate], in data set [2], the “homogenous solution or precipitation of octenidine” value is listed as “resulted in the precipitation of octenidine”.
For the molecule “polyhexamethylene biguanide [polyhexamethylene biguanidine]”, in data set [1], the “antimicrobial activity in the presence of carnitine enhancers (in words)” value is listed as “performed better in the absence of carnitine enhancer”.
Still for that read-out and setting: under benzalkonium chloride stands “No effect”.
`CCCCCCCCN=c1ccn(CCCCCCCCCCn2ccc(=NCCCCCCCC)cc2)cc1` [octenidine, octenidine hydrochloride]: the “antimicrobial efficacy relative to chlorhexidine” value in data set [3] was 3-10 times. Also, the “absorption through skin or mucous membranes” value in data set [4] is on record as “not absorbed”. For the same molecule, in data set [5], the contact dermatitis result is “does not cause contact dermatitis”. Moreover, in data set [6], the “cytotoxicity relative to chlorhexidine” value is reported as “less cytotoxic than chlorhexidine”.
